Source: paper PMC12380226, “Novel strategies for inhibiting SufA protease: the role of ester substituents and biological properties” (Future Medicinal Chemistry, 2025)
Read-outs that look alike come from different tables or passages of the source.

Legend:
SufA [1] = system: SufA; set-up: method as in PMID 24859537; settings: cited from earlier work
HLMEC = system: HLMEC; set-up: method as in PMID 24859537; settings: HLMEC cell line; cited from earlier work
SufA [2] = system: SufA; set-up: method as in PMID 24859537; settings: cited from earlier work; remark: listed apart in the source
BALB/3T3 = system: BALB/3T3; set-up: method as in PMID 24859537; settings: BALB/3T3 cell line; cited from earlier work
SplA protease = system: SplA protease; set-up: method as in PMID 24375505; settings: cited from earlier work
E. coli PCM 2561 = assay: Antibacterial activity, growth reduction (OD600, 24 h); format: cell-based; settings: Escherichia coli, PCM2561, MH broth
Method: (§1) The antibacterial properties of the inhibitors were assessed in Mueller-Hinton (MH) broth at 37°C for E. coli, S. marcescens, and S. aureus. For F. magna, the antibacterial properties of the inhibitors were tested in Todd Hewitt broth at 37°C under anaerobic conditions. An overnight culture of the tested bacteria was diluted 200-fold in fresh medium and incubated at 37°C until the OD600 reached 0.3. Subsequently, 100 µL of the inhibitor and antibiotic control (at concentrations ranging from 0 to 250 µg/mL) were added to 900 µL of bacterial culture, which had been previously diluted to an OD600 of less than 0.01. The resulting samples were incubated for 24 h at 37°C with shaking at 100 rpm. Then, 200 µL of each sample was transferred to a well plate, and the absorbance was measured at a wavelength of 600 nm using a microplate reader. To determine the antibacterial properties of the inhibitors, the data were normalized against a control culture (without inhibitor or antibiotics). The IC50 values were calculated using GraphPad Prism through nonlinear regression, employing the following equation model: Y=YBottom+(YTop−YBottom)/(1+10^∧((LogIC50−X)∗(−1.0))),
(§2) where YBottom and YTop represent the plateaued units of the Y-axis. The IC50 value represents the concentration that produces a half-maximal response between YBottom and YTop, thus measuring the potency of a compound in inhibiting bacterial viability and indicating a 50% reduction in bacterial growth. The effect of gentamicin on bacterial growth reduction, including its IC50 values, can be found in the Supplementary Material (Supplementary Microbiology Part S1, Figures S12)

S. aureus PCM 2602 = assay: as above; format: cell-based; settings: Staphylococcus aureus, PCM2602, MH broth
Method: as §1, §2

S. marcescens PCM 549 = assay: as above; format: cell-based; settings: Serratia marcescens, read-out: IC50 growth reduction
Method: as §1, §2

F. magna PCM 2822 = assay: as above; format: cell-based; settings: Finegoldia magna, read-out: IC50 growth reduction
Method: as §1, §2

SufA protease [3] = assay: Inhibition of SufA-mediated degradation of human fibrinogen (SDS-PAGE); format: biochemical, Finegoldia magna; settings: SufA 25 µg/mL, inhibitor 1.3 mM, pre-incubation 60 min 37°C, SDS-PAGE reducing
Method: (§3) The SufA protease was incubated with the specific SufA inhibitor for 60 min at 37°C, maintaining a constant DMSO concentration of 1%. The reference sample contained an appropriate amount of DMSO instead of the inhibitor. After incubation, fibrinogen and LL-37 proteins were added to each sample of enzyme (25 µg/mL) or enzyme with inhibitor (25 µg/mL, 1.3 mM). Samples were analyzed by PAGE using the standard Laemmli protocol for fibrinogen and the procedure developed by Judd for the LL-37 peptide. Raw gel results of the inhibition of SufA-induced degradation of human fibrinogen and LL-37 by tested inhibitors after SDS-PAGE electrophoresis analysis are presented in Supplementary Biochemical Part S1-S2 and Figures S9–S11.

SufA protease [4] = assay: Inhibition of SufA-mediated degradation of human antimicrobial peptide LL-37 (PAGE); format: biochemical, Finegoldia magna; settings: SufA 25 µg/mL, inhibitor 1.3 mM, pre-incubation 60 min 37°C
Method: as §3

ctDNA = assay: DNA intercalation by circular dichroism spectroscopy; format: binding, ox; settings: inhibitor 100 µM, ctDNA 50 µM, 1% DMSO
Method: The measurement parameters were set as follows: the wavelength range was set from 220 nm to 320 nm, step – at every 0.2 nm, and 4 accumulations. Measurements were performed in a Justcode M cuvette with an optical path of 1 mm. 200 μL of the analyzed solution was introduced into the cuvette each time. The apparatus was zeroed using phosphate buffer with the following composition: 150 mM NaCl, 20 mM PB, 1 mM EDTA. Afterward, the samples (maintaining a constant DMSO concentration of 1%) of ctDNA (50 µM), inhibitor (100 µM), and inhibitor (100 µM) with ctDNA (50 µM) were prepared. First, a sample of the ctDNA solution was measured with a CD spectrometer to check the graph for pure DNA. Then, a sample of the inhibitor solution was measured, against which the apparatus was blanked because the inhibitor molecule itself could produce a CD effect, potentially falsifying the results. At the end, a sample of the actual solution containing the inhibitor and ctDNA was measured.

SufA protease [5] = assay: SufA inhibition studies (fluorogenic substrate ABZ-Ile-Ser-Lys-ANB, progress curve method); format: biochemical, Finegoldia magna
Method: The assays were performed at 37°C with an excitation wavelength of 320 nm for ABZ and an emission wavelength of 410 nm using 96-well microtiter plates (COSTAR, Corning Inc., Gdańsk, Poland) in 0.1 M Tris-HCl (pH 8.0) with 0.01 M KCl. The concentrations of substrate (ABZ-Ile-Ser-Lys-ANB) and SufA protease were 25 µM and 4 µg/mL, respectively. The SufA protease was incubated for 10 min with the tested compound, dissolved in DMSO (inhibitor final concentration ranging from 0 to 300 µM), and then the measurement was taken for 10 min. Each assay was performed in at least duplicate. The inhibitory activity was measured, and the percentage of inhibition was calculated with the equation: % inhibition = RFUtest / RFU− ∗ 100%,
where RFU represents the relative fluorescence units, test refers to the signal from reactions containing an inhibitor, and (-) represents the signal from the control reactions (without an inhibitor). The inhibitory effects of the synthesized compounds were evaluated by means of the progress curve method.
where [P] is the product concentration at time t, vi is the initial velocity, and vs is the steady state velocity. […]

S. aureus = settings: read-out: literature IC50; cited from earlier work
E. coli = settings: read-out: literature IC50; cited from earlier work

With `N=C(N)c1ccc2cc(C(NC(=O)OCc3ccccc3)P(=O)(Oc3ccccc3)Oc3ccccc3)ccc2c1` (stereo not drawn) [Cbz-6-AmNpth^P(OC6H5)2] as the compound, how does the “Inhibition of degradation of fibrinogen” value (SufA [1]) read?
Its value is “completely inhibited the degradation of fibrinogen”.

What about the Cytotoxicity (HLMEC) of the same compound?
Its Cytotoxicity is “no significant cytotoxicity”.

And the k2/Ki (SufA [2])?
Its k2/Ki is 10,800 M^− 1 s^− 1.

And the Cytotoxicity (BALB/3T3)?
The Cytotoxicity was “no significant cytotoxicity”.

For `CC(C)CC(NC(=O)C1CCCN1C(=O)C(NC(=O)OCc1ccccc1)C(C)C)P(=O)(Oc1ccc(S(C)(=O)=O)cc1)Oc1ccc(S(C)(=O)=O)cc1` (stereo not drawn) [Cbz-Val-Pro-Leu^P(OC6H4-4-SOOCH3)2], which k2/Ki (SplA protease) is on record?
The k2/Ki was greater than 8000 M⁻¹ s⁻¹.

With `CC(C)C(NC(=O)OCc1ccccc1)C(=O)N1CCCC1C(=O)NC(Cc1ccccc1)P(=O)(Oc1ccc(S(C)(=O)=O)cc1)Oc1ccc(S(C)(=O)=O)cc1` (stereo not drawn) [Cbz-Val-Pro-Phe^P(OC6H4-4-SOOCH3)2] as the compound, how does the k2/Ki (SplA protease) read?
The k2/Ki was greater than 8000 M⁻¹ s⁻¹.

For `CSc1ccc(OP(=O)(Oc2ccc(SC)cc2)C(NC(=O)OCc2ccccc2)c2ccc3cc(C(=N)N)ccc3c2)cc1` (stereo not drawn) [Compound 8a, Cbz-6-AmNphth^P(OC6H4-4-SCH3)2], which IC50 (E. coli PCM 2561) is on record?
Its IC50 is 28.2 µM.

What about the IC50 (S. aureus PCM 2602) of the same compound?
The IC50 was 2.65 µM.

And the IC50 (S. marcescens PCM 549; PCM549, 24 h)?
The IC50 was 0.02 µM.

And the IC50 (F. magna PCM 2822; PCM2822, Todd Hewitt broth, anaerobic, 24 h)?
Its IC50 is 0.02 µM.

And the “Inhibition of SufA-induced degradation of human fibrinogen” value (“Inhibition … of human fibrinogen” below) (SufA protease [3])?
Its value is “completely prevented fibrinogen degradation”.

What about the “Inhibition of SufA-induced degradation of LL-37” value (SufA protease [4]) of the same compound?
Its value is “inhibition of LL-37 cleavage”.

What about the “DNA intercalation (change of CD spectrum of ctDNA)” value (ctDNA) of the same compound?
The value was “does not induce DNA intercalation”.

And the k2/Ki (SufA protease [5]; second-order rate constant, 37°C, pH 8.0)?
The k2/Ki was 1500 M⁻¹ s⁻¹.

For `COc1ccc(OP(=O)(Oc2ccc(OC)cc2)C(NC(=O)OCc2ccccc2)c2ccc3cc(C(=N)N)ccc3c2)cc1` (stereo not drawn) [Compound 8b, Cbz-6-AmNphth^P(OC6H4-4-OCH3)2], which IC50 (E. coli PCM 2561) is on record?
Its IC50 is greater than 150 µM.

And the IC50 (S. aureus PCM 2602)?
Its IC50 is 19.2 µM.

What about the IC50 (S. marcescens PCM 549; PCM549, 24 h) of the same compound?
Its IC50 is 0.48 µM.

And the IC50 (F. magna PCM 2822; PCM2822, 24 h)?
The IC50 was 0.04 µM.

And the “Inhibition … of human fibrinogen” value (SufA protease [3])?
The value was “weaker inhibitory effect on fibrinogen degradation”.

For `COC(=O)c1ccc(OP(=O)(Oc2ccc(C(=O)OC)cc2)C(NC(=O)OCc2ccccc2)c2ccc3cc(C(=N)N)ccc3c2)cc1` (stereo not drawn) [Compound 8c, Cbz-6-AmNphth^P(OC6H4-4-COOCH3)2], which IC50 (E. coli PCM 2561) is on record?
Its IC50 is 60.9 µM.

What about the IC50 (S. aureus PCM 2602) of the same compound?
The IC50 was greater than 150 µM.

And the IC50 (S. marcescens PCM 549; PCM549, 24 h)?
Its IC50 is less than 0.01 µM.

What about the IC50 (F. magna PCM 2822; PCM2822, 24 h) of the same compound?
The IC50 was 6.98 µM.

What about the “Inhibition … of human fibrinogen” value (SufA protease [3]) of the same compound?
Its value is “weaker inhibitory effect on fibrinogen degradation”.

What about the “% SufA inhibition” value (SufA protease [5]; cmpd. conc. 50 μM) of the same compound?
Its value is less than 50%.

For `CC1(C)S[C@@H]2[C@H](NC(=O)[C@H](N)c3ccccc3)C(=O)N2[C@H]1C(=O)O` [ampicillin], which IC50 (S. aureus) is on record?
Its IC50 is 0.18 µM.

What about the IC50 (E. coli) of the same compound?
The IC50 was 10.1 µM.

Which results are given for `O=C(N[C@H](CO)[C@H](O)c1ccc([N+](=O)[O-])cc1)C(Cl)Cl` [chloramphenicol]?
IC50 (S. aureus): 1.59 µM; IC50 (E. coli): 373 µM

Which IC50 (S. marcescens PCM 549; PCM549, MH broth, 24 h) does the source give for `CNC(C)C1CCC(N)C(OC2C(N)CC(N)C(OC3OCC(C)(O)C(NC)C3O)C2O)O1` (stereo not drawn) [gentamicin, reference compound] here?
Its IC50 is 0.251 µM.
